For assay [1], the target named is T1, Sodium-dependent dopamine transporter (Rattus norvegicus, UniProt P23977).
The target of assay [2] is T1, Sodium-dependent dopamine transporter. Description: Inhibition of [3H]dopamine uptake at dopamine transporter.
The target is the same in assay [3]. The source holds these as a separate data set.
For assay [4] the target is unchanged. As to the kind of experiment: Inhibition of [3H]mazindol binding to the dopamine transporter.
Assay [5] shares this target. As to the kind of experiment: Inhibition of [3H]-dopamine uptake at dopamine transporter.
Assay [6] shares this target. Description: Inhibition of [3H]BTCP binding to the dopamine transporter.
The target is the same in assay [7]. As to the kind of experiment: Potency for the inhibition of [3H]WIN-35428 binding to the dopamine transporter.
Assay [8] has the same target. Description: Inhibition of [3H]WIN-35428 binding to the dopamine transporter.
Assay [9] has the same target. Description: Inhibition of [3H]GBR-12935 binding to the dopamine transporter.
Assay [10] has the same target. Description: Inhibition of [3H]cocaine binding to the dopamine transporter.
For assay [11] the target is unchanged. As to the kind of experiment: Inhibition of [3H]dopamine uptake at the dopamine transporter.
The target is the same in assay [12]. As to the kind of experiment: Inhibition of dopamine uptake at dopamine transporter.
Assay [13] shares this target. This is another data set of the same source.

SMILES strings stand for the structures.

T1 sequence (P23977 whole entry): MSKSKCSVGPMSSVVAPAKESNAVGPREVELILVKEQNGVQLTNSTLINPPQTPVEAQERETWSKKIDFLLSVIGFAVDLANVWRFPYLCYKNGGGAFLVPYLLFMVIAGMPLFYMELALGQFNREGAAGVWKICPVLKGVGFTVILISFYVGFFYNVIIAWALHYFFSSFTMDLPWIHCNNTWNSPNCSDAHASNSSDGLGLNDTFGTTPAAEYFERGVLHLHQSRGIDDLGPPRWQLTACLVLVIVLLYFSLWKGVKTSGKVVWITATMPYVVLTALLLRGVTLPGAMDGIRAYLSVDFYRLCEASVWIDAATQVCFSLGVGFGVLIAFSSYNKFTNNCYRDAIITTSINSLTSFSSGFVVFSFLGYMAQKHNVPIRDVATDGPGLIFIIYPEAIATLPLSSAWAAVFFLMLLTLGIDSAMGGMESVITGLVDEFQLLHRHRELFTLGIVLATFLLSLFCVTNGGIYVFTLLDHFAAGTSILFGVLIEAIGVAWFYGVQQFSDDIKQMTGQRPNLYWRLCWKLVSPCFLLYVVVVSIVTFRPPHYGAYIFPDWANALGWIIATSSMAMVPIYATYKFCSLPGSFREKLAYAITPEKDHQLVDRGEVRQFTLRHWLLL

Turning to `COC(=O)C1C2CC[C@H](C[C@@H]1OC(=O)Nc1cccc([N+](=O)[O-])c1)N2C` (stereo partly specified), the IC50 was determined as 0.037 µM in assay [1], 0.178 µM in [2] and 0.33 µM in [3].

For the molecule `COC(=O)C1C2CC[C@H](C[C@@H]1OC(=O)c1ccccc1)[N+]2(C)C` (stereo partly specified), the IC50 in assay [4] turned out to be 20 µM; in assay [5], 0.014 µM; in [6], 0.008 µM; in assay [7], 10.7 µM.

In [2], `COC(=O)C1C2CC[C@H](C[C@@H]1OC(=O)c1ccc(N=[N+]=[N-])c(I)c1)N2C` (stereo partly specified) yielded a concentration for half-maximal inhibition (IC50) of 0.8 µM.

Regarding `CN1C2CC[C@@H]1C[C@H](OC(=O)c1ccccc1)C2C(=O)OCCc1ccc(N)cc1` (stereo partly specified), the IC50 in assay [8] was found to be 0.071 µM. This counts as double-digit nanomolar.

On to `COC(=O)C1C2CC[C@H](C[C@@H]1OC(=O)c1ccc(N)cc1)N2C` (stereo partly specified), for which the IC50 worked out at 3.04 µM in [4] and 1.23 µM in assay [7].

In the case of `CN1C2CC[C@@H]1C[C@H](O)C2C(=O)O` (stereo partly specified), the IC50 was greater than 1000 µM in assay [4] and 0.0047 µM in assay [3].

In the case of `CN1C2CC[C@@H]1C[C@H](OC(=O)c1ccc(N)cc1)C2C(=O)O` (stereo partly specified), the IC50 in [4] worked out at 4.51 µM; in assay [5] it was 0.035 µM; in [7], 8.25 µM; in [3] it was 0.009 µM.

For the molecule `COC(=O)C1C2CC[C@H](C[C@@H]1c1ccc(F)cc1)N2` (stereo partly specified), half-maximal inhibition in assay [1] (IC50) was put at 0.036 µM.

Consider `COC(=O)C1C2CC[C@H](C[C@@H]1OC(=O)c1ccccc1)N2Cc1ccccc1` (stereo partly specified), for which the IC50 in assay [8] was found to be 0.668 µM; in [9] it was 0.25 µM; in assay [6] it was 0.14 µM; in assay [2], 0.077 µM; in [10] it was 0.02 µM.

Take `COC(=O)[C@@H]1C2CC[C@H](C[C@@H]1c1ccccc1)N2C`: the IC50 in assay [7] was found to be 0.561 µM.

For the molecule `CN1[C@@H]2CC[C@H]1C[C@H](OC(=O)c1ccccc1)C2`, the half-maximal inhibitory concentration (IC50) in assay [11] was determined as 110 µM; in assay [4], 15 µM; in assay [12], 186 µM; in [1], 23 µM; in [10], 3.3 µM.

In the case of `COC(=O)[C@@H]1C2CC[C@H](C[C@@H]1c1ccc(N=[N+]=[N-])cc1)N2C`, the IC50 is 0.002 µM in assay [8] and 0.2 µM in assay [12].

On to `COC(=O)C1C2CC[C@H](C[C@H]1c1ccc(C)cc1)N2C` (stereo partly specified), for which the half-maximal inhibitory concentration (IC50) in assay [4] amounted to 0.005 µM; in assay [2] it was 0.11 µM; in assay [7], 0.002 µM.

In the case of `c1ccc2sc(C3(N4CCCCC4)CCCCC3)cc2c1`, the IC50 was found to be 0.042 µM in [1], 0.005 µM in assay [6], 0.002 µM in assay [13] and 0.02 µM in [3].

`COC(=O)C1C2CC[C@H](C[C@@H]1c1ccc(I)cc1)N2C` (stereo partly specified) had an IC50 in assay [7] of 0.001 µM.

On to `CC[C@H](C)[C@H](NC(=O)[C@@H](NC[C@H](CC(C)C)NC(=O)[C@H](Cc1c[nH]cn1)NC(=O)[C@H](Cc1ccccc1)NC(=O)[C@]1(C)CCCN1C(=O)OC(C)(C)C)C(C)C)C(=O)NCc1ccccn1`, for which the concentration for half-maximal inhibition (IC50) in [4] is 0.178 µM; in [5], 0.029 µM; in assay [2], 2.48 µM; in [3] it was 0.093 µM.

As to `COC(=O)C1C2CC[C@H](C[C@@H]1OC(=O)c1cccc(N=C=S)c1)N2C` (stereo partly specified), the IC50 was 1.46 µM in assay [7] and 0.072 µM in assay [3].

With `O=C(O[C@H]1C[C@H]2CCC(N2)C1C(=O)O)c1ccccc1` (stereo partly specified), the IC50 stood at 342 µM in [4] and 78.2 µM in [10].

On to `COC(=O)C1C2CC[C@H](C[C@@H]1c1ccccc1)N2` (stereo partly specified), for which the IC50 in assay [4] worked out at 0.36 µM; in [1] it was 0.086 µM.

In [2], `CN1C2CC[C@@H]1C[C@H](c1ccc(Cl)cc1)C2C(=O)OCCc1ccc(N=[N+]=[N-])c(I)c1` (stereo partly specified) displayed an IC50 of 1.4 µM.

In turn, `CNC(=O)C1C2CC[C@H](C[C@@H]1OC(=O)c1ccccc1)N2C` (stereo partly specified) had an IC50 in assay [5] of 2 µM.

For `C=CCN1C2CC[C@@H]1C[C@H](OC(=O)c1ccccc1)C2C(=O)OC` (stereo partly specified), the IC50 in assay [1] came to 1.02 µM; in [2], 2.5 µM.

As for `COC(=O)C1C2CC[C@H](C[C@@H]1OC(=O)c1ccc(N=C=S)cc1)N2C` (stereo partly specified), the results for the IC50 in assay [2], in assay [7] and in assay [3] were 2.78 µM, 1.05 µM and 0.276 µM, respectively.

With `COC(=O)[C@@H]1C2CC[C@H](C[C@@H]1c1ccc(N)cc1)N2C`, the results for the IC50 in assay [12] and in [10] were 0.557 µM and 0.192 µM, respectively.

`COC(=O)C1C2CC[C@H](C[C@@H]1c1ccc(Cl)cc1)N2C` (stereo partly specified): the IC50 was determined as 0.001 µM in assay [8], 0.002 µM in assay [4] and 0.03 µM in [12].

In assay [4], `COC(=O)C1C2CC[C@H](C[C@@H]1O)N2C` (stereo in doubt; 18) returned an IC50 of 62 µM.

For the molecule `COC(=O)C1C2CC[C@H](C[C@@H]1OC(=O)c1ccccc1)N2` (stereo in doubt; 22), the IC50 came to 1.21 µM in assay [4], 0.414 µM in assay [1], 0.303 µM in [7] and 0.092 µM in [3].

Turning to `COC(=O)C1C2CC[C@H](C[C@@H]1OC(=O)c1ccccc1)N2` (stereo in doubt; 23), the IC50 in [1] worked out at 0.27 µM; in assay [2], 2.5 µM.

For the molecule `COC(=O)C1C2CC[C@H](C[C@@H]1O)N2C` (stereo in doubt; 31), the IC50 in [4] is 87 µM. That is a double-digit micromolar value.

Turning to `COC(=O)[C@@H]1C2CC[C@H](C[C@@H]1c1ccccc1)N2C` (stereo in doubt; 47), the IC50 in assay [4] was determined as 0.119 µM; in assay [1], 0.044 µM; in assay [2], 0.96 µM.

In the case of `COC(=O)[C@@H]1C2CC[C@H](C[C@@H]1c1ccccc1)N2C` (stereo in doubt; 49), the IC50 in assay [1] came out at 0.022 µM; in assay [2], 1.33 µM.

As to `COC(=O)[C@@H]1C2CC[C@H](C[C@@H]1c1ccccc1)N2C` (stereo in doubt; 50), the values for the IC50 in [1] and in assay [2] were 32 µM and 200 µM, respectively.

For the molecule `COC(=O)[C@@H]1C2CC[C@H](C[C@@H]1c1ccccc1)N2C` (stereo in doubt; 68), the figures for the IC50 in assay [8], in assay [4] and in assay [10] were 2.9 µM, 385 µM and 2.6 µM, respectively.

Consider `COC(=O)[C@@H]1C2CC[C@H](C[C@@H]1c1ccccc1)N2C` (stereo in doubt; 70), for which the results for the IC50 in [12] and in assay [10] were 2.1 µM and 1.2 µM, respectively.

For the origin of these results see ChEMBL document CHEMBL1125413 (J Med Chem, 1992).
